Measured values: patent US7053107B2, “Indazole compounds and pharmaceutical compositions for inhibiting protein kinases, and methods for their use” (Agouron Pharmaceuticals, Inc., priority 2002, dated 2006)
Read-outs that look alike come from different tables or passages of the source.

Experiments:
[1] = tested on: HUVEC; experiment: HUVEC + albumin proliferation; type: cell-based; details: Homo sapiens, 72 h, with albumin
Procedure: (§1) This assay determines the ability of a test compound to inhibit the growth factor-stimulated proliferation of human umbilical vein endothelial cells (“HUVEC”). HUVEC cells (passage 3–4, Clonetics, Corp.) were thawed into EGM2 culture medium (Clonetics Corp) in T75 flasks. Fresh EGM2 medium was added to the flasks 24 hours later. Four or five days later, cells were exposed to another culture medium (F12K medium supplemented with 10% fetal bovine serum (FBS), 60 μg/mL endothelial cell growth supplement (ECGS), and 0.1 mg/mL heparin). Exponentially-growing HUVEC cells were used in experiments thereafter. Ten to twelve thousand HUVEC cells were plated in 96-well dishes in 100 μl of rich, culture medium (described above). The cells were allowed to attach for 24 hours in this medium. The medium was then removed by aspiration and 105 μl of starvation media (F12K+1% FBS) was added to each well. After 24 hours, 15 μl of test agent dissolved in 1% DMSO in starvation medium or this vehicle alone was added into each treatment well; the final DMSO concentration was 0.1%. One hour later, 30 μl of VEGF (30 ng/mL) in starvation media was added to all wells except those containing untreated controls; the final VEGF concentration was 6 ng/mL. Cellular proliferation was quantified 72 hours later by MTT dye reduction, at which time cells were exposed for 4 hours MTT (Promega Corp.). Dye reduction was stopped by addition of a stop solution (Promega Corp.) and absorbance at 595λ was determined on a 96-well spectrophotometer plate reader.
(§2) IC50 values were calculated by curve-fitting the response of A^595 to various concentrations of the test agent; typically, seven concentrations separated by 0.5 log were employed, with triplicate wells at each concentration. For screening compound library plates, one or two concentrations (one well per concentration) were employed, and the % inhibition was calculated by the following formula: % inhibition=(control−test)[…](control−starvation) where

[2] = target: T1, unphosphorylated VEGF-R2Δ50 (Homo sapiens, UniProt P35968, DEL940-989/E990V); experiment: VEGF-R2 coupled spectrophotometric assay, unphosphorylated construct (FLVK); type: biochemical; details: % inhibition at 50 nM compound; read-out: FLVK Ki % inh @ 50 nM
T1 construct: VEGF-R2Δ50 contains residues 806–939 and 990–1171; made in house; host or cells: baculovirus/insect cell system
T1 sequence (P35968 with tags, fused parts or gaps DEL940-989/E990V limits assumed): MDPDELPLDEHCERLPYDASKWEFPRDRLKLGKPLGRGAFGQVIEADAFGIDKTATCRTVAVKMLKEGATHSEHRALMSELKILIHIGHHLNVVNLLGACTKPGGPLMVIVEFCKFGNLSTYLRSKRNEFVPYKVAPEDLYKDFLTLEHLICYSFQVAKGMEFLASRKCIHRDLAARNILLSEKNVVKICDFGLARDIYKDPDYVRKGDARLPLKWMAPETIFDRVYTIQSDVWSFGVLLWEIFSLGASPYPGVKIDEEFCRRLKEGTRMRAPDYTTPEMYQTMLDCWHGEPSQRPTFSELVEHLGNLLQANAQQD
Excerpt: This construct determines the ability of a test compound to inhibit tyrosine kinase activity. A construct (VEGF-R2Δ50) of the cytosolic domain of human vascular endothelial growth factor receptor 2 (VEGF-R2) lacking the 50 central residues of the 68 residues of the kinase insert domain was expressed in a baculovirus/insect cell system. Of the 1356 residues of full-length VEGF-R2, VEGF-R2Δ50 contains residues 806–939 and 990–1171, and also one point mutation (E99OV) within the kinase insert domain relative to wild-type VEGF-R2. Autophosphorylation of the purified construct was performed by incubation of the enzyme at a concentration of 4 μM in the presence of 3 mM ATP and 40 mM MgCl2 in 100 mM HEPES, pH 7.5, containing 5% glycerol and 5 mM DTT, at 4° C. for 2 h. […] See Parast et al., Biochemistry, 37,16788–16801 (1998).
(§3) The production of ADP from ATP that accompanies phosphoryl transfer was coupled to oxidation of NADH using phosphoenolpyruvate (PEP) and a system having pyruvate kinase (PK) and lactic dehydrogenase (LDH). The oxidation of NADH was monitored by following the decrease of absorbance at 340 nm (e340=6.22 cm^−1 mM^−1) using a Beckman DU 650 spectrophotometer. Assay conditions for phosphorylated VEGF-R2A50 (indicated as FLVK-P in the tables below) were the following: 1 mM PEP; 250 μM NADH; 50 units of LDH/mL; 20 units of PK/mL; 5 mM DTT; 5.1 mM poly(E4Y1); 1 mM ATP; and 25 mM MgCl2 in 200 mM HEPES, pH 7.5. Assay conditions for unphosphorylated VEGF-R2Δ50 (indicated as FLVK in the tables) were the following: 1 mM PEP; 250 μM NADH; 50 units of LDH/mL; 20 units of PK/mL; 5 mM DTT; […]; 3 mM ATP; and 60 mM MgCl2 and 2 mM MnCl2 in 200 mM HEPES, pH 7.5. Assays were initiated with 5 to 40 nM of enzyme. Ki values were determined by measuring enzyme activity in the presence of varying concentrations of test compounds. The data were analyzed using Enzyme Kinetic and Kaleidagraph software.

[3] = target: T2, PDGFRβ (Homo sapiens, UniProt P09619); experiment: PAE-PDGFRβ Phosphorylation in PAE-PDGFRB Cells Assay; type: cell-based; details: PAE cells overexpressing human PDGFRβ; read-out: PAE PDGFR autophos IC50
T2 construct: expressed in transfected cells; host or cells: porcine aorta endothelial (PAE) cells
T2 sequence (P09619 33-1106): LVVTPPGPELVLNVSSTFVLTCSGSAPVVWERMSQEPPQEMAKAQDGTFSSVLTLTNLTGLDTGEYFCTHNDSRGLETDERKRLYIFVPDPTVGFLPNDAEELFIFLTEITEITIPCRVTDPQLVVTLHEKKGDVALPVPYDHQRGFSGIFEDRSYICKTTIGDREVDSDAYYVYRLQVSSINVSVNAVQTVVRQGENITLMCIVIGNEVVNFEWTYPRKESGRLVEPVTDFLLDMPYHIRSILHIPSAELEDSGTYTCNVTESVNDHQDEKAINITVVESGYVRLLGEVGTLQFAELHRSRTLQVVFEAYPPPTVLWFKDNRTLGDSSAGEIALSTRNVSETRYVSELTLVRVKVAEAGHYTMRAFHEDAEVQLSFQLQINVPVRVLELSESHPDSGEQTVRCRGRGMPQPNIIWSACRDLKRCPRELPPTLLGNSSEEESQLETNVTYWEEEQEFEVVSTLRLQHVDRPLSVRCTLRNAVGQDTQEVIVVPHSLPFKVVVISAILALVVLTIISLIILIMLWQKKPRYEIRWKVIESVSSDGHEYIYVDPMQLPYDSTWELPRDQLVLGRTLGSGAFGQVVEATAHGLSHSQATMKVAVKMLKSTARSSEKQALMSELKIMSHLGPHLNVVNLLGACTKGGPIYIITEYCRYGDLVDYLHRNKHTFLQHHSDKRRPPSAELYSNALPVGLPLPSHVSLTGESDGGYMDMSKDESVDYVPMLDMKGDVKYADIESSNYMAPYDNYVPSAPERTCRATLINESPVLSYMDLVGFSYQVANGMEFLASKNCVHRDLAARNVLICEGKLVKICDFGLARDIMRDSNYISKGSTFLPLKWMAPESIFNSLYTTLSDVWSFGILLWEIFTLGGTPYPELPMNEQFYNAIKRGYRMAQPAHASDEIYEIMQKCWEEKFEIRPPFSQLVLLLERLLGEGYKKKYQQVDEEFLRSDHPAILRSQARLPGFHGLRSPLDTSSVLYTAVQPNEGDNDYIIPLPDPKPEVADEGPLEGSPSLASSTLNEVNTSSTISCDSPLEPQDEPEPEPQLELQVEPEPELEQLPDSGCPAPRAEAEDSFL
Procedure: This assay determines the ability of a test compound to inhibit the autophosphorylation of PDGFRβ in porcine aorta endothelial (PAE)-PDGFRβ cells. PAE cells that overexpress human PDGFRβ were used in this assay. The cells were cultured in Ham's F12 media supplemented with 10% fetal bovine serum (FBS) and 400 ug/ml G418. Twenty thousands cells were seeded in each well of a 96-well plate in 50 μL of growth media and allowed to attach for 6 hours at 37° C. Cells were then exposed to the starvation media (Ham's F12 media supplemented with 0.1% FBS) for 16 hours. After the starvation period was over, 10 μL of test agent in 5% DMSO in starvation media were added to the test wells and 10 μL of the vehicle (5% DMSO in starvation media) were added into the control wells. The final DMSO concentration in each well was 0.5%. Plates were incubated at 37° C. for 1 hour and the cells were then stimulated with 1 μg/mL PDGF-BB (R & D System) in the presence of 2 mM Na3VO4 for 8 minutes. The cells were washed once with 1 mm Na3VO4 in HBSS and lysed by adding 50 μL per well of lysis buffer. One hundred μL of dilution buffer were then added to each well and the diluted cell lysate was transferred to a 96-well goat ant-rabbit coated plate (Pierce), which was pre-coated with Rabbit anti Human PDGFRβ antibody (Santa Cruz). The plates were incubated at room temperature for 2 hours and washed seven times with 1% Tween 20 in PBS. HRP-PY20 (Santa Cruz) was diluted and added to the plate for a 30-minute incubation. Plates were then washed again and TMB peroxidase substrate (Kirkegaard & Perry) was added for a 10-minute incubation. One hundred μL of 0.09 N H2SO4 was added into each well of the 96-well plate to stop the reaction. Phosphorylation status was assessed by spectrophotometer reading at 450 nm. IC50 values were calculated by curve fitting using a four-parameter analysis.

[4] = Human Liver Microsome (HLM) Assay; type: in vitro ADME; details: @0.5 h
Procedure: Compound metabolism in human liver microsomes was measured by LC-MS analytical assay procedures as follows. First, human liver microsomes (HLM) were thawed and diluted to 5 mg/mL with cold 100 mM potassium phosphate (KPO4) buffer. Appropriate amounts of KPO4 buffer, NADPH-regenerating solution (containing B-NADP, glucose-6-phosphate, glucose-6-phosphate dehydrogenase, and MgCl2), and HLM were preincubated in 13×100 mm glass tubes at 37 C. for 10 min. (3 tubes per test compound—triplicate). Test compound (5 µM final) was added to each tube to initiate reaction and was mixed by gentle vortexing, followed by incubation at 37° C. […] Samples were centrifuged at 4000 rpm for 20 min. to precipitate proteins and salt (Beckman Allegra 6KR, S/N ALK98DO6, #634). Supernatant was transferred to new 12×75 mm glass tubes and evaporated by Speed-Vac centrifugal vacuum evaporator. Samples were reconstituted in 200 μL 0.1% formic acid/acetonitrile (90/10) and vortexed vigorously to dissolve. The samples were then transferred to separate polypropylene microcentrifuge tubes and centrifuged at 14000×g for 10 min. (Fisher Micro 14, S/N M0017580). […]
The combined compound samples were injected into the LC-MS system, composed of a Hewlett-Packard HP 1100 diode array HPLC and a Micromass Quattro II triple quadruple mass spectrometer operating in positive electrospray SIR mode (programmed to scan specifically for the molecular ion of each test compound. Each test compound peak was integrated at each timepoint. […]

[5] = target: T3, FGF-R1 (Homo sapiens, UniProt P11362, C488A/C584S/L457V); experiment: Fibroblast Growth Factor (FGF-R) spectrophotometric assay; type: biochemical; details: 1 μM compound; read-out: FGF-P % inhibit @1 μM
T3 construct: starting from the endogenous methionine residue 456 to glutamate 766; made in house; host or cells: baculovirus vector expression system
T3 sequence (P11362 456-766 L457V/C488A/C584S): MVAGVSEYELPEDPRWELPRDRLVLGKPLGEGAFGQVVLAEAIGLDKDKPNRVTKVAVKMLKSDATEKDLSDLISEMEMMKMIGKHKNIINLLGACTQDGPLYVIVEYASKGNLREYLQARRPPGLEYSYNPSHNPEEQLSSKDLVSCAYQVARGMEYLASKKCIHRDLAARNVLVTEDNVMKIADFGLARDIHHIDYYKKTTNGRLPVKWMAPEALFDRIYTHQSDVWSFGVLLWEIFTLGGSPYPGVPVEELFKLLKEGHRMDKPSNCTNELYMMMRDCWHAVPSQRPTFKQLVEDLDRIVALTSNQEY
Excerpt: The intracellular kinase domain of human FGF-R1 was expressed using the baculovirus vector expression system starting from the endogenous methionine residue 456 to glutamate 766, according to the residue numbering system of Mohammadi et al., Mol. Cell. Biol., 16, 977–989 (1996). In addition, the construct also has the following 3 amino acid substitutions: L457V, C488A, and C584S.
as §3
The spectrophotometric assay was carried out as described above for VEGF-R2, except for the following changes in concentration: FGF-R=50 nM, ATP=2 mM, and poly(E4Y1)=15 mM.

[6] = tested on: human umbilical vein endothelial cells (HUVEC); experiment: HUVEC Proliferation Assay (VEGF-stimulated); type: cell-based
Procedure: as §1, §2
control=A^595 when VEGF is present without test agent
test=A^595 when VEGF is present with test agent
starvation=A^595 when VEGF and test agent are both absent.

[7] = target: T4, LCK (Homo sapiens, UniProt P06239, C224D/P223M); experiment: Lymphocyte-Specific Protein-Tyrosine Kinase (LCK) spectrophotometric assay; type: biochemical; details: 1 μM compound; read-out: LckP* % inhibit @1 μM
T4 construct: starting from amino acid residue 223 to the end of the protein at residue 509; made in house; host or cells: insect cells
T4 sequence (P06239 223-509 P223M/C224D): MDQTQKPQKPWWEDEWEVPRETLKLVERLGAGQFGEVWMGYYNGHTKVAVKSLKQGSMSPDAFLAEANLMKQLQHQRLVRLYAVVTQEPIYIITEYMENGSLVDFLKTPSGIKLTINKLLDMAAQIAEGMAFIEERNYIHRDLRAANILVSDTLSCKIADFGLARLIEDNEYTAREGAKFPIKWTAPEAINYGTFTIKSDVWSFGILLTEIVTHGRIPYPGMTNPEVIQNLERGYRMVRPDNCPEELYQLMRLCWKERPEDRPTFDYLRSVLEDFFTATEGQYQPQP

[8] = Mouse PK Assay; type: in vivo; details: female, B6, plasma
Procedure: The pharmacokinetics (e.g., absorption and elimination) of drugs in mice were analyzed using the following experiment. Test compounds were formulated as a solution or suspension in a 30:70 (PEG 400: acidified H2O) vehicle or as a suspension in 0.5% CMC. This was administered orally (p.o.) and intraperitoneally (i.p.) at variable doses to two distinct groups (n=4) of B6 female mice. Blood samples were collected via an orbital bleed at time points: 0 hour (pre-dose), 0.5 h, 1.0 h, 2.0 h, and 4.0 h, and 7.0 h post dose. Plasma was obtained from each sample by centrifugation at 2500 rpm for 5 min. Test compound was extracted from the plasma by an organic protein precipitation method. For each time bleed 50 μL of plasma was combined with 1.0 mL of acetonitrile, vortexed for 2 min. and then spun at 4000 rpm for 15 min. to precipitate the protein and extract out the test compound. […] Test-compound plasma concentrations (μg/mL) were determined by a comparison to standard curve (peak area vs. conc. μg/mL) using known concentrations of test compound extracted from plasma samples in the manner described above. […] The quantitated test samples were plotted for visual display using Kalidagraph software and their pharmacokinetic parameters were determined using WIN NONLIN software. […]

| inhibition at 0.05 µM [2] [%] | IC50 [3] [nM] | % remaining (HLM) [4] | inhibition at 1 µM [5] [%] | inhibition at 1 µM [7] [%] | AUC ([8]; ip, intraperitoneal, read-out: Mouse pK, AUC, ip) [ng·h/mL] | AUC ([8]; oral, read-out: Mouse pK, AUC, po) [ng·h/mL] | Structure (SMILES) | IC50 [1] [nM] | IC50 [6] [nM] |
| --- | --- | --- | --- | --- | --- | --- | --- | --- | --- |
| 75 | 2 |  |  |  |  |  | Cc1ccnc(/C=C/c2n[nH]c3cc(Nc4ccccc4C(=O)NCc4ccncc4)ccc23)c1 [Example 38, 2-{3-[2-(4-Methyl-pyridin-2-yl)-vinyl]-1H-indazol6-ylamino}-N-pyridin-4-ylmethyl-benzamide] | 0.68 |  |
| 91 |  | 46@0.5 h % | 83 | 9 |  |  | CC(C)ONC(=O)c1ccccc1Nc1ccc2c(/C=C/c3ccccn3)n[nH]c2c1 [Example 3(c), N-Isopropoxy-2-[3-((E)-2-pyridin-2-yl-vinyl)-1H-indazol-6-ylamino]-benzamide] | 9.2 | 0.43 |
| 95 |  |  | 60 | 41 |  |  | Cn1cccc1C(=O)NNC(=O)c1ccccc1Nc1ccc2c(/C=C/c3ccccn3)n[nH]c2c1 [Example 3(f)] | > 100 |  |
|  |  |  |  |  | 690 | 330 | COC(=O)C(C(=O)OC)c1ccc(Cl)cc1[N+](=O)[O-] [Example 1(a), 2-(4-Chloro-2-nitro-phenyl)-malonic acid dimethyl ester] |  |  |
